US7285567B2, “Halogenated benzamide derivatives” (Romark Laboratories, L.C., priority 2005, dated 2007)
In brackets after ≈: the same amount, converted by molar mass. Like-named read-outs stand apart in the source and are kept apart here.

How the values were obtained:
[1] = system: anaerobic Gram positive cocci; assay: CLSI agar dilution MIC, anaerobic clinical isolates; type: cell-based; details: Gram + cocci (16 isolates), 48 h
[2] = system: anaerobic bacteria (all 142 isolates); assay: CLSI agar dilution MIC, all anaerobic clinical isolates; type: cell-based; details: for MIC50 / MIC90: All (142 isolates), agar dilution, 48 h; for Activity against anaerobic bacteria groups (summary in words): summary of MIC results
[3] = system: anaerobic Gram-positive non-sporeforming rods; assay: CLSI agar dilution MIC, anaerobic clinical isolates; type: cell-based; details: Gram + rods (14 isolates), 48 h
[4] = system: clostridia; assay: organism not typed; type: cell-based; details: 48 h
[5] = system: B. fragilis group; assay: CLSI agar dilution MIC, anaerobic clinical isolates; type: cell-based; details: Bacteroides fragilis, B. fragilis gp (40 isolates), 48 h, 35° C.
Method: (§1) Methods. Recent clinical anaerobic isolates (2000 to date) comprised 40 B. fragilis group, 26 Prevotella/Porphyromonas, 28 fusobacteria, 16 anaerobic Gram positive cocci, 14 anaerobic Gram-positive non-sporeforming rods and 18 clostridia. CLSI agar dilution MIC methodology with enriched Brucella blood agar and inocula of 1×10^5 cfu/spot was used. Plates were incubated in an anaerobic glove box at 35° C. for 48 h. Results.

[6] = system: fusobacteria; assay: as above; type: cell-based; details: Fusobacteria (28 isolates), 48 h
Method: as §1

[7] = system: Prevotella/Porphyromonas; assay: as above; type: cell-based; details: Prev/Porphy (26 isolates), 48 h
Method: as §1

[8] = system: Paramyxovirus: Sendai virus; assay: microbe, parasite or virus in culture; type: cell-based; details: Respirovirus muris; Sendai virus in cell culture (Table 2)
[9] = system: Sarcocystis neurona; assay: Efficacy against intracellular protozoa
[10] = system: Cryptosporidium spp.; assay: Efficacy against intracellular protozoa
[11] = system: Neospora spp.; assay: Efficacy against intracellular protozoa
[12] = system: Giardia intestinalis; assay: Antiparasite test by conventional means; type: cell-based; details: at concentrations of at least 50 μg/mL
Method: (§2) The above identified compounds according to Formula (IV) were tested by conventional means against Trichomis vaginalis, Giardia Intestinalis, and Trypanosoma brucei.

[13] = system: Trypanosoma brucei; assay: Antiparasite test by conventional means; type: cell-based; details: at concentrations of at least 50 μg/mL
Method: as §2

[14] = system: Trichomonas vaginalis; assay: Antiparasite test by conventional means; type: cell-based; details: at concentrations of at least 50 μg/mL
Method: as §2

[15] = system: H3N2 influenza virus, type A; assay: Multiple cycle CPE inhibition assay on MDCK cell monolayers; type: cell-based; details: 0% EMEM + Hepes + Trypsin
Method: (§3) EC50 (μg/mL) values for 2-(acetolyloxy)-3-methyl-N-(5-bromo-2-thiazolyl)benzamide (RM4803), 2-(acetolyloxy)-3-methyl-N-(5-chloro-2-thiazolyl)benzamide (RM4804), and 2-(acetolyloxy)-3-methoxy-N-(5-bromo-2-thiazolyl)benzamide (RM4806), on Human Rhinovirus Type 39 (HRV-39), and H3N2 influenza virus, type A, using a multiple cycle CPE inhibition assay on OH-I Hela and Madin Darby Canine Kidney (MDCK) cell monolayers, respectively, were measured by microscopic and spectrophotometric methods. Pirodavir and Oseltamivir were included as positive controls.

[16] = system: Human Rhinovirus Type 39 (HRV-39); assay: Multiple cycle CPE inhibition assay on OH-I Hela cell monolayers; type: cell-based; details: Rhinovirus A, HRV39, HRV-39, OH-Hela, 2% McCoys + Hepes Buffer
Method: as §3

[17] = Clostridia (18 isolates), agar dilution, read-out: MIC50
[18] = microscopic reading, read-out: EC50, Microscopic
[19] = spectrophotometric reading, read-out: EC50, Spectrophotometer

CC(=O)Oc1ccccc1C(=O)Nc1ncc([N+](=O)[O-])s1 [Nitazoxanide, 2-(acetolyloxy)-N-(5-nitro-2-thiazolyl) benzamide]
MIC50 [1]: 0.5 µg/mL | MIC90 [1]: 2 µg/mL | MIC50 [2]: 2 µg/mL (≈ 6.51 µM) | MIC90 [2]: 4 µg/mL (≈ 13 µM) | Activity against anaerobic bacteria groups (summary in words) [2]: potent against all anaerobic bacteria groups except for Gram-positive anaerobic rods | MIC50 [3]: 16 µg/mL | MIC90 [3]: > 32 µg/mL | MIC50 [4, 17]: 0.5 µg/mL (≈ 1.63 µM) | MIC50 [5]: 2 µg/mL (≈ 6.51 µM) | MIC90 [5]: 4 µg/mL (≈ 13 µM) | MIC50 [6]: 1 µg/mL (≈ 3.25 µM) | MIC50 [7]: 4 µg/mL (≈ 13 µM) | MIC90 [7]: 8 µg/mL (≈ 26 µM)

CCC[C@@H]1C[C@@H](C(=O)N[C@@H]([C@H]2O[C@H](SC)[C@H](O)[C@@H](O)[C@H]2O)[C@H](C)Cl)N(C)C1 [Clindamycin]
MIC50 [1]: 0.125 µg/mL | MIC90 [1]: 0.5 µg/mL | MIC50 [2]: 0.125 µg/mL (≈ 0.294 µM) | MIC90 [2]: 8 µg/mL (≈ 18.8 µM) | MIC50 [3]: 0.125 µg/mL | MIC90 [3]: 4 µg/mL | MIC50 [4]: 1 µg/mL (≈ 2.35 µM) | MIC90 [4]: > 32 µg/mL | MIC50 [5]: 2 µg/mL (≈ 4.71 µM) | MIC90 [5]: > 32 µg/mL | MIC50 [6]: 0.06 µg/mL (≈ 0.141 µM) | MIC90 [6]: 0.125 µg/mL (≈ 0.294 µM) | MIC50 [7]: ≤ 0.015 µg/mL | MIC90 [7]: ≤ 0.015 µg/mL

Cc1ncc([N+](=O)[O-])n1CCO [Metronidazole]
MIC50 [1]: 0.5 µg/mL | MIC90 [1]: 1 µg/mL | MIC50 [2]: 1 µg/mL (≈ 5.84 µM) | MIC90 [2]: 2 µg/mL (≈ 11.7 µM) | MIC50 [3]: > 16 µg/mL | MIC90 [3]: > 16 µg/mL | MIC50 [5]: 1 µg/mL (≈ 5.84 µM) | MIC90 [5]: 2 µg/mL (≈ 11.7 µM) | MIC50 [6]: 0.25 µg/mL (≈ 1.46 µM) | MIC90 [6]: 0.25 µg/mL (≈ 1.46 µM) | MIC50 [7]: 0.5 µg/mL (≈ 2.92 µM)

CC(=O)Oc1ccc(C)cc1C(=O)Nc1ncc(Br)s1 [RM-4821]
EC50 [8]: 360 nM | efficacy against intracellular protozoa [9]: effective | efficacy against intracellular protozoa [10]: effective | efficacy against intracellular protozoa [11]: effective

CC(=O)Oc1cc(C)ccc1C(=O)Nc1ncc(Br)s1 [RM-4822]
EC50 [8]: 360 nM | efficacy against intracellular protozoa [9]: effective | efficacy against intracellular protozoa [10]: effective | efficacy against intracellular protozoa [11]: effective

COc1cccc(C(=O)Nc2ncc(Br)s2)c1OC(C)=O [RM-4806, 2-(acetolyloxy)-3-methoxy-N-(5-bromo-2-thiazolyl)benzamide]
antiparasite activity [12]: failed to exhibit antiparasite activitity | antiparasite activity [13]: failed to exhibit antiparasite activitity | antiparasite activity [14]: failed to exhibit antiparasite activitity | EC50 [15, 18]: 0.46 µg/mL | EC50 [15, 19]: 0.57 µg/mL | EC50 [16, 18]: 5 µg/mL | EC50 [16, 19]: 4 µg/mL

O=C(Nc1ncc([N+](=O)[O-])s1)c1ccccc1O [Tizoxanide]
MIC50 [1]: 0.5 µg/mL | MIC90 [1]: 1 µg/mL | MIC50 [2]: 2 µg/mL (≈ 7.54 µM) | MIC90 [2]: 4 µg/mL (≈ 15.1 µM) | Activity against anaerobic bacteria groups (summary in words) [2]: potent against all anaerobic bacteria groups except for Gram-positive anaerobic rods | MIC50 [3]: 8 µg/mL | MIC90 [3]: > 32 µg/mL | MIC50 [4, 17]: 0.25 µg/mL (≈ 0.943 µM) | MIC50 [5]: 2 µg/mL (≈ 7.54 µM) | MIC90 [5]: 4 µg/mL (≈ 15.1 µM) | MIC50 [6]: 0.5 µg/mL (≈ 1.89 µM) | MIC90 [6]: 2 µg/mL (≈ 7.54 µM) | MIC90 [7]: 16 µg/mL (≈ 60.3 µM)

CC(=O)Oc1ccccc1C(=O)Nc1ncc(Br)s1 [RM-4820, 2-(acetolyloxy)-N-(5-bromo-2-thiazolyl)benzamide]
EC50 [8]: 340 nM | efficacy against intracellular protozoa [9]: effective | efficacy against intracellular protozoa [10]: effective | efficacy against intracellular protozoa [11]: effective

CCOC(=O)c1ccc(OCCC2CCN(c3ccc(C)nn3)CC2)cc1 [Pirodavir, reference compound]
EC50 [16, 18]: 0.007 µg/mL | EC50 [16, 19]: 0.004 µg/mL

CCOC(=O)C1=C[C@@H](OC(CC)CC)[C@H](NC(C)=O)[C@@H](N)C1 [Oseltamivir, reference compound]
EC50 [15, 18]: 0.13 to 0.17 µg/mL | EC50 [15, 19]: 0.08 to 0.36 µg/mL

CC(=O)Oc1c(C)cccc1C(=O)Nc1ncc(Cl)s1 [RM-4804, 2-(acetolyloxy)-3-methyl-N-(5-chloro-2-thiazolyl)benzamide]
antiparasite activity [12]: failed to exhibit antiparasite activitity | antiparasite activity [13]: failed to exhibit antiparasite activitity | antiparasite activity [14]: failed to exhibit antiparasite activitity | EC50 [15, 18]: 0.93 µg/mL | EC50 [15, 19]: 0.57 µg/mL | EC50 [16, 18]: 0.57 µg/mL | EC50 [16, 19]: 0.32 µg/mL
